Test results as given in patent US20260199214A1, “Personal Care Compositions And Methods For The Same” (Colgate-Palmolive Company, priority 2019, published 2026).

System: neonatal human epidermal keratinocytes (HEKn)
Assay: Intracellular ROS by fluorescence microscopy in keratinocytes exposed to urban dust, with niacinamide and/or FSO (Example 2)
Type: cell-based
Details: HEKn cells, 200 μg/mL UD, about one hour exposure; niacinamide/FSO concentration per sample
Procedure: An in vitro study was conducted to analyze the skin protecting benefits of varying concentrations of niacinamide and/or FSO. Particularly, an in vitro study was conducted to analyze the efficacy of varying concentrations of niacinamide and/or FSO in reducing and/or preventing ROS in and on the skin.
To conduct the study, neonatal human epidermal keratinocytes (HEKn) were grown in standard well plates having glass bottoms coated with collagen I. The HEKn were cultured in EpiLife™ media supplemented with human keratinocyte growth supplements (HKGS), both of which are commercially available from ThermoFisher Scientific of Waltham, MA. Stock solutions of FSO, niacinamide, and urban dust (UD) were prepared for the treatment of the keratinocytes. It should be appreciated that the UD is representative of particulate matter (PM) pollution.
The presence or amount of intracellular reactive oxygen species (ROS) was measured using fluorescence microscopy. […] After exposure to the oxidative stress detection reagent and the FSO, niacinamide, and/or UD, the keratinocytes were washed twice with a wash buffer and imaged via fluorescence in the wash buffer. Live adherent cells were imaged using GFP excitation/emission filters, and the ROS levels were quantified from raw images using ImageJ software.

Compound	ROS Levels (%) Relative to UD Alone [%]
NC(=O)c1cccnc1 [Sample 13, niacinamide]	−10.79
NC(=O)c1cccnc1 [Sample 14, niacinamide]	−3.89
